Results reported in paper PMC7825302, “Tetraoctylammonium, a Long Chain Quaternary Ammonium Blocker, Promotes a Noncollapsed, Resting-Like Inactivated State in KcsA” (International Journal of Molecular Sciences, 2021).
Each block holds one molecule with its values, some of them ahead of it.

Columns and labels:
[1] = biological target: T1, W67 KcsA (Streptomyces lividans, UniProt P0A334, W113F/W26F/W68F/W87F); assay: thermal denaturation titration with fitted KD; pH […] (pH […]); effect supported by homo-FRET; assay type: binding
T1 construct: quadruple mutant KcsA with a single Trp (W67) per subunit, homotetramer, His-tag purified from E. coli, in DDM detergent

[2] = biological target: T2, KcsA (Streptomyces lividans, UniProt P0A334); assay: thermal denaturation (intrinsic fluorescence) titration with fitted KD; pH […] (pH […]); assay type: binding
T2 construct: wild-type (WT) KcsA, homotetramer, His-tag purified from E. coli, in DDM detergent
T2 sequence (P0A334 1-160): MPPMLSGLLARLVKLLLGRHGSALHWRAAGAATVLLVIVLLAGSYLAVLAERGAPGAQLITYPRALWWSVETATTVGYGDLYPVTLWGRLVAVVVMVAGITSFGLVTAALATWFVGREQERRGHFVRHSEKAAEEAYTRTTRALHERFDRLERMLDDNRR

[3] = biological target: T3, wild-type KcsA potassium channel (Streptomyces lividans), P0A334; assay: SDS-PAGE; 12% SDS-PAGE of the detergent-solubilised (DDM) channel at room temperature, 10 mM Na+, pH 7.0 and pH 4.0, without or with 1 or 100 µM TOA+; settings: remark: other sources report otherwise
T3 chain: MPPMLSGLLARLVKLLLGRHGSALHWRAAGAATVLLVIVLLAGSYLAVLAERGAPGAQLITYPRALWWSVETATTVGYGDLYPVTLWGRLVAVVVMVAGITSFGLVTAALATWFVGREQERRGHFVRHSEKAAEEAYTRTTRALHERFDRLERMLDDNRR

[4] = biological target: the molecule itself; assay: FRET or BRET; homo-FRET among the W67 residues of the subunits, from steady-state and time-resolved fluorescence anisotropy; 5 µM protein in 5 mM DDM, pH 7.0 or pH 4.0, K+ titrated, with or without 100 µM TOA+

Molecule: CCCCCCCC[N+](CCCCCCCC)(CCCCCCCC)CCCCCCCC [tetraoctylammonium]
Kd [1]: 107 nM
Kd [2]: 180 nM

stoichiometry N [3]: 4
B1: wild-type KcsA potassium channel, P0A334 1-160 (natural protein)
chain: MPPMLSGLLARLVKLLLGRHGSALHWRAAGAATVLLVIVLLAGSYLAVLAERGAPGAQLITYPRALWWSVETATTVGYGDLYPVTLWGRLVAVVVMVAGITSFGLVTAALATWFVGREQERRGHFVRHSEKAAEEAYTRTTRALHERFDRLERMLDDNRR

B2: W67 KcsA (quadruple mutant W26, 68, 87, 113F KcsA with a single tryptophan, W67, per subunit) (natural protein, Streptomyces lividans, UniProt P0A334 1-160, looked up)
chain: MPPMLSGLLARLVKLLLGRHGSALHFRAAGAATVLLVIVLLAGSYLAVLAERGAPGAQLITYPRALWFSVETATTVGYGDLYPVTLFGRLVAVVVMVAGITSFGLVTAALATFFVGREQERRGHFVRHSEKAAEEAYTRTTRALHERFDRLERMLDDNRR
notes: KcsA, prokaryotic K+ channel from Streptomyces lividans, native Trp residues 26, 68, 87 and 113 mutated to Phe; also called KcsA W26, 68, 87, 113F; W67 mutant channel
binding result [4]: binds
